Where “and” joins values, the source holds several entries; their conditions need not be identical. Equal values may be shown once. Marks after values point to notes of the source that are not given here.

Holding throughout (format): in vivo
A short description of series [1]: Compound 1 single dose rat PK study. Particulars: male Sprague Dawley rats, single iv dose 2 mg/kg, first plasma collection time listed as Tmax. As for the experimental part: A pharmacokinetic study of Compound 1 following a single intravenous or oral dose administration to male Sprague Dawley rats was conducted, the results of which are found in Table 3 and FIGS. 9-14.

Series [2] can be described thus: Compound 1 single dose mouse PK study. To be noted: male CD-1 mice, single iv dose 2 mg/kg; first plasma collection time. The protocol:
A pharmacokinetic study of Compound 1 following a single intravenous or oral dose administration to male CD-1 mice was conducted, the results of which are found in Table 4 and FIGS. 15-20.

A short description of series [3]: Compound 2 single dose rat PK study. To be noted: male Sprague Dawley rats, single iv dose 2 mg/kg; for Tmax: first plasma collection time or observed time of highest plasma concentration. As for the experimental part:
A pharmacokinetic study of Compound 2 following a single intravenous or oral dose administration to male Sprague Dawley rats was conducted, the results of which are found in Table 5 and FIGS. 21-24.

As for `CC(=O)N1CCc2c(C(=O)N3CCC(c4ccc(F)c(F)c4C(F)(F)F)CC3)n[nH]c2C1` [Compound 1, 1-(3-(4-(3,4-difluoro-2-(trifluoromethyl)phenyl)piperidine-1-carbonyl)-1,4,5,7-tetrahydro-6H-pyrazolo[3,4-c]pyridin-6-yl)ethan-1-one], the Tmax is 4.98 min in series [1] (Mean), 4.98 min in series [1] (individual rat) and 0.083^b hr in series [2].

For `CC(=O)N1Cc2[nH]nc(C(=O)N3CCC(c4ccc(F)c(F)c4C(F)(F)F)CC3)c2C1` [Compound 2, 1-(3-(4-(3,4-difluoro-2-(trifluoromethyl)phenyl)piperidine-1-carbonyl)-4,6-dihydropyrrolo[3,4-c]pyrazol-5(1H)-yl)ethan-1-one], in series [3] (Mean), the Tmax is 13.3 min. In addition, in series [3] (individual rat, 2 mg/kg), the AUCinf is 4027 ng·h/mL and 5052 ng·h/mL; the Cl is 4.13 mL/min/kg and 3.3 mL/min/kg; the Tmax was 4.98 min.

As usually defined, the Tmax is the time at which the peak concentration occurs.

Values taken from patent US20250295654A1, “METHODS OF TREATING METABOLIC DISEASES WITH FUSED BICYCLIC PYRAZOLES” (Belite Bio, Inc, priority 2019, published 2025).
